# Assay results as given in patent US10646600B2, “HER2 polypeptides useful for imaging and monitoring tumors and cancers” (GE HEALTHCARE LIMITED, priority 2013, dated 2020).
# “Also recorded” adds a separate entry of the source.
# Columns and labels:
# HER2 positive cell lines = assay: In vitro uptake assay, HER2 positive cell lines; type: cell-based, human
# Text: MCF7-vector (piRES), MCF7-p95HER2 and MCF7-HER2 cells were a kind gift of Jose Baselga's laboratory (17). MCF7 clones, MDA-MB-231 (ATCC, Manassas, Va.), MDA-MB-361 (Sigma-Aldrich), SKBR-3 (ATCC) and SKOV-3 (Sigma-Aldrich) cells were maintained in DMEM. AGS (Sigma-Aldrich), HGC-27 (Sigma-Aldrich), NCI-N87 (ATCC) and OE-33 (ATCC) cells were maintained in RPMI (Sigma-Aldrich). A431 cells (Sigma-Aldrich) were maintained in MEM Eagle medium (Sigma-Aldrich). Growth media were supplemented with 10% FCS (Lonza, Basel, Switzerland), glutamine and antibiotics (both Invitrogen, Paisley, United Kingdom). A431 cells were additionally supplemented with 1% non-essential amino acids. All cells were cultured at 37° C. in a humidified atmosphere containing 5% CO2.
# For baseline uptake in HER2 positive or negative lineages, 3×10^5 cells were seeded in complete media in 12-well plates (Corning, Tewksbury Mass.) and allowed to recover overnight. Cells were washed twice with serum-free medium and pulsed with 370 KBq in 500 μL serum-free medium for one h. […]
# Cells were washed with PBS, trypsinized, neutralized with complete medium and centrifuged. […] The radioactivity of 100 μL lysate was counted on a Packard Cobra II gamma counter (Perkin Elmer). Radioactivity was normalized to applied radioactivity and protein content, which was determined for each sample by BCA assay (Pierce, Rockford, Ill.). […]
# MDA-MB-361 xenografts = assay: PET-CT imaging and kinetic modeling, MDA-MB-361 xenografts; type: in vivo, mice
# Text: Mice were anesthetized through isoflurane inhalation and scanned on a dedicated small animal PET-CT scanner (Siemens Multimodality Inveon, Erlangen, Germany). Low dose CT scans were first acquired (80 kVp, 0.5 mA, 220 degree rotation, 600 ms per degree exposure time, 80 μm reconstruction pixel size) for PET attenuation correction and to obtain an anatomical reference. PET images were acquired following a bolus i.v. injection of approximately 3.7 MBq [^18F]GE-226 in the tail vein. Dynamic emission scans were acquired in list mode format over 60 minutes. The acquired data were sorted into 0.5-mm sinogram bins and 19 time frames for image reconstruction by filtered back projection (4×15 seconds and 4×60 seconds followed by 11×300 seconds). The Siemens Inveon Research Workplace software was used for visualization of radiotracer uptake. 30 to 60-minute cumulative images of the dynamic data were employed to define 3-dimensional (3D) regions of interest (ROI). […] The count densities were averaged for all ROIs at each time point to obtain time versus radioactivity curves (TAC). Tumor TACs were normalized to injected dose measured by a VDC-304 dose calibrator (Veenstra Instruments, Joure, Netherlands) and normalized uptake was expressed as percentage injected dose per mL tissue (NUV; % ID/mL). […]
# MDA-MB-361 = assay: Biodistribution, MDA-MB-361 tumor; type: in vivo, mice; settings: 60 min
# Text: Mice were sacrificed at different time points by exsanguination.
substance,measurement,setting,value
[^18F]GE-226: HER2-binding 18F-radiolabelled Affibody molecule ZHER2:2891,dependence of uptake/binding on EGFR,HER2 positive cell lines,independent of presence of other targets like EGFR; also recorded: independent of expression
same,NUV60,"MDA-MB-361 xenografts; PET, 60 minutes",18.2±3.4 % ID/mL
same,Ki (net irreversible uptake rate),MDA-MB-361 xenografts; two-tissue irreversible compartmental model,0.025±0.0052 mL/cm^3/min
same,"Tissue uptake, MDA-MB-361",MDA-MB-361,17.00 ± 2.98 % ID/g tissue
